The results in this text go back to patent US20220241429A1, “Antifolate-Carrying Nanoparticles and Their Use in Medicine” (priority 2018, published 2022).

Test [1] concerns U87MG cells. As to the kind of experiment: Cytotoxic or cytostatic activity on U87MG cells. It counts as cell-based. The note with it: Homo sapiens, U-87 MG; Incubation time 72 hours, concentration range 40 pM to 500 μM. As to the method:
(§1) The cytotoxic or cytostatic activity of methotrexate, the linker-modified methotrexate, MTX-(EG)3-NH2 and of MTX-(EG)3-NH2-loaded gold nanoparticles (GNPs) ([MTX-(EG)3-NHC(O)-(EG)8][alpha-Gall][COOH-(EG)8]@Au) was assessed by treatment of Hep3B and U87MG cells. Incubation time was 72 hours and the concentration range was 40 pM to 500 μM. The results are expressed as IC50 and are as follows: […]

In test [2] the test system is Hep3B cells. As to the kind of experiment: Cytotoxic or cytostatic activity on Hep3B cells. It counts as cell-based. The note with it: Homo sapiens, Incubation time 72 hours, concentration range 40 pM to 500 μM. As to the method:
as §1

In general, IC50 refers to the concentration that inhibits the measured activity by half. The low end stands for greater potency, the high end for weaker potency. Consider `CN(Cc1cnc2nc(N)nc(N)c2n1)c1ccc(C(=O)NC(CCC(=O)NCCCOCCOCCOCCCN)C(=O)O)cc1` (stereo not shown) [MTX-(EG)3-NH2, 4-[(3-{2-[2-(3-aminopropoxy)ethoxy]ethoxy}propyl)carbamoyl]-2-[(4-{[(2,4-diaminopteridin-6-yl)methyl](methyl)amino}phenyl)formamido]butanoic acid], for which the results for the IC50 in test [1] and in test [2] were 1 to 1000 µM and 0.001 to 1 µM, respectively.

With `CN(Cc1cnc2nc(N)nc(N)c2n1)c1ccc(C(=O)N[C@@H](CCC(=O)O)C(=O)O)cc1` [MTX, Methotrexate], the IC50 in test [1] and in test [2] was 0.001 to 1 µM in each case.
